According to US20250352529A1, “COMBINED USE OF M1 MUSCARINIC RECEPTOR AGONISTS AND M3 MUSCARINIC RECEPTOR ANTAGONISTS TO TREAT CANCER” (The United States Government As Represented By The …, priority 2024, published 2025):
Where two headings read alike, the source gives them in different places.

Legend:
[1] = tested on: H508 human CRC cells; assay: WST-1 cell proliferation assay, H508 cells; format: cell-based; settings: for change in cell proliferation: trospium 5-50 μM; for IC50: Homo sapiens, read-out: half-maximal inhibitory concentration (IC50), cell proliferation; for effect of antagonist preincubation on xanomeline dose-response curve (proliferation): trospium 50 μM, darifenacin 30 and 60 μM
Procedure: (§1) FIG. 6A) Treating H508 cells for 5 days with carbachol (carb), a non-selective muscarinic receptor agonist stimulates cell proliferation measured using the WST-1 Cell Proliferation Assay (Roche). Cont, control; Carb, carbachol. Solid black circles represent values for individual replicates. […] Cells were incubated with or without agents for 5 days. N=4. FIG. 6D). Maximal proliferation responses observed with increasing concentrations of McN-A-343 in H508 (square), HT-29 (triangle), and HCT116 (circle) human CRC cells. Cells were incubated with agents for 5 days. Dose-response curves created by nonlinear regression (GraphPad Prism).
(§2) Human colon cancer cell lines (H508, HCT116) were grown in complete culture medium in a 37° C. incubator with 5% CO2 and sub-cultured weekly. H508 or HCT116 cells were seeded in 96-well plates, allowed to adhere for 24 h and changed to serum-free culture medium. Cells were treated for 5 days with Xanomeline, a selective M1R agonist, and were pre-incubated for 30 min with Darifenacin, a selective M3R antagonist or Trospium, a non-selective MR antagonist. Cell proliferation and cytotoxicity were measured using the WST-1 and LDH colorimetric assays, respectively. Absorbance was measured at 440 nm and 490/680 nm, respectively, using a computer-interfaced plate reader.

[2] = tested on: HCT116 human CRC cells; assay: WST-1 cell proliferation assay, HCT116 cells; format: cell-based
Procedure: as §1, §2

[3] = tested on: HT-29 human CRC cells; assay: WST-1 cell proliferation assay, HT-29 cells; format: cell-based; settings: HT-29 cells (CHRM1:3-low), 5 days; read-out: half-maximal effective concentration (EC50) for inhibition of CRC cell proliferation
Procedure: as §1

[4] = tested on: H508 CRC cells; assay: LDH release cytotoxicity assay; format: cell-based, human; settings: increasing doses of xanomeline +/− 30 or 60 μM darifenacin
Procedure: FIG. 7A-B show combining a selective M3R inhibitor (darifenacin) with an M1R-selective activator potentiates inhibition of cell proliferation without cell injury. […] Triton X-100 was the positive control for LDH release. Symbols represent means+/−SEM of 3-9 replicates.
To exclude cell toxicity with these drug concentration, cellular release of lactate dehydrogenase (LDH) was measured.
as §2

[5] = H508 cells, 5 days, agent alone
[6] = NCI-H508, 120 h, H508 cells, agent alone, 5 days

IC50 [1, 6] | Structure (SMILES) | change in cell proliferation [1, 5] | effect of antagonist preincubation on xanomeline dose-response curve (proliferation) ([1]; H508 cells) | other results
 | C[N+](C)(C)CC#CCOC(=O)Nc1cccc(Cl)c1.[Cl-] [McN-A-343] | robustly and dose-dependently attenuated cell proliferation |  | EC50 ([1]; H508 cells (CHRM1:3-low), 5 days, read-out: half-maximal effective concentration (EC50) for inhibition of CRC cell proliferation): 137 µM; EC50 ([2]; HCT116 cells (CHRM1:3-high), 5 days, read-out: half-maximal effective concentration (EC50) for inhibition of CRC cell proliferation): 7.89 µM; EC50 [3]: 548 µM
 | C[N+](C)(C)CCOC(N)=O [carbachol, Carbachol] | two-fold increase in cell proliferation |  | 
32.8 µM | CCCCCCOc1nsnc1C1=CCCN(C)C1 [xanomeline, Xanomeline] | robustly and dose-dependently attenuated cell proliferation |  | IC50 ([1]; NCI-H508, H508 cells, xanomeline plus 30 μM darifenacin): 21.6 µM; IC50 ([1]; NCI-H508, H508 cells, xanomeline plus 60 μM darifenacin): 18.7 µM; cell LDH leakage [4]: No cell LDH leakage was detected; inhibition of cell proliferation compared to H508 cells ([2]; HCT116 cells, increasing xanomeline concentrations): attenuated at lower xanomeline concentrations
 | O=C(O[C@H]1C[C@H]2CC[C@@H](C1)[N+]21CCCC1)C(O)(c1ccccc1)c1ccccc1 [trospium, Trospium] | did not alter cell proliferation | did not shift | 
84 µM | NC(=O)C(c1ccccc1)(c1ccccc1)[C@@H]1CCN(CCc2ccc3c(c2)CCO3)C1 [darifenacin, Darifenacin] |  | shifted the xanomeline dose-response curve progressively leftward | 
